Results reported in article PMC5175178, “Development of an in-vivo active reversible butyrylcholinesterase inhibitor” (Scientific Reports, 2016).

Tests used:
huBChE = biological target: T1, huBChE (Homo sapiens, UniProt P06276); test: Kinetic studies for huBChE inhibition, stopped-flow progress curves; format: biochemical; details: hydrolysis by huBChE, pH 8
T1 construct: made in house
Experimental: This situation is referred to as tight binding inhibition. […] Of note, a high enzyme concentration was used in order to investigate the time-dependent inhibition and to reach the plateau of the reaction, which allowed precise quantification of the substrate concentration. […] The curves were analyzed simultaneously using the ENZO application[36].
Briefly, the time-course of yellow color formation was followed on a Bio-logic SFM-2000 stopped flow apparatus at 25 °C. […] The buffer solutions were injected into a mixing chamber using syringes. […] The progress curves obtained were analyzed simultaneously, using the ENZO application[36], which can derive and numerically solve a system of differential equations, and fit their coefficients. Several reaction mechanisms were tested.

ABCB1 = test: Caco-2 monolayer bidirectional permeability assay; details: human; for Papp A→B at 120 min: Caco-2, apical-to-basolateral apparent permeability coefficient; for Papp B→A at 120 min: Caco-2, basolateral-to-apical apparent permeability coefficient
Experimental: (§1) They were grown on Transwell® culture inserts with a polycarbonate membrane (diameter, 12 mm; pore size, 0.4 µm). 50,000 cells/filter membranes were used for seeding and the medium was changed every two days. At day 18, transepithelial electrical resistance (TEER) was measured for each filter with Caco-2 cell monolayers. […] The samples were acidified by dilution with the same volume of 0.01M HCl before fluorescence measurements.
(§2) Ringer buffer with 10 mM d-glucose or 10 mM mannitol on apical and basolateral side of the tissue, respectively, was used as an incubation saline. […] The stock solutions were added either to the apical or to the basolateral compartment to obtain bidirectional permeability measurements. Six samples were withdrawn in 20 min intervals. Each time 300 µl was taken from the 1500 µL basolateral acceptor compartment and 100 µL from the 500 µL apical acceptor compartment. These volumes were immediately replaced by the appropriate fresh incubation saline. […] All apparent permeability coefficients were calculated as described previously^24.

Caco-2 cells = test: Caco-2 monolayer bidirectional permeability assay; details: ABCB1 marker substrate, no inhibitor
Experimental: as §1, §2

T1 sequence (P06276 29-602): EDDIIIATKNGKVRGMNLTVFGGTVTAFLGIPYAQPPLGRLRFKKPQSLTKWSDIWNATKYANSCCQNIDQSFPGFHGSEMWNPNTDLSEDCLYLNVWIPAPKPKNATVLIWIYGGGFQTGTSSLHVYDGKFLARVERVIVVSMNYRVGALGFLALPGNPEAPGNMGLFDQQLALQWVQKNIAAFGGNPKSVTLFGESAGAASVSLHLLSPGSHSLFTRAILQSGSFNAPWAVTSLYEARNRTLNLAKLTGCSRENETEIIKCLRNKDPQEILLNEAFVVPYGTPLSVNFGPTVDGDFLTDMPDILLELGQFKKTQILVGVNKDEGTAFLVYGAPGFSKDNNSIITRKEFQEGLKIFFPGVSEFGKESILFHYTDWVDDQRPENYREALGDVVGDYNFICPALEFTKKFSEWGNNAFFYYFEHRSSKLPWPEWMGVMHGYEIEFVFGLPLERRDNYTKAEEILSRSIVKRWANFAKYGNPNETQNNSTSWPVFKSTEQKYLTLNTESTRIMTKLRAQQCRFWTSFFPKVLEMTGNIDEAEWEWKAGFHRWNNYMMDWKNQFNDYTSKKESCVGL

| Compound | kcat (s^-1) ± SD (huBChE) | Km (huBChE; read-out: Km (µM) ± SD) | efflux ratio at 120 min (ABCB1; Caco-2) | Papp A→B at 120 min (ABCB1; after inhibition with PSC833) | Papp A→B at 120 min (ABCB1; no inhibitor) | Papp B→A at 120 min (ABCB1; after inhibition with PSC833) | Papp B→A at 120 min (ABCB1; no inhibitor) | efflux ratio (Caco-2 cells) |
| --- | --- | --- | --- | --- | --- | --- | --- | --- |
| CCCC(=O)SCC[N+](C)(C)C.[I-] [BTCI, butyrylthiocholine iodide] | 852 ± 8 s⁻¹ | 38.5 ± 0.3 µM | – | – | – | – | – | – |
| COC(=O)c1ccccc1-c1c2ccc(=N)cc-2oc2cc(N)ccc12 [Rhodamine123] | – | – | 2.5 | 1 ×10⁻⁶ cm/s | 1.1 ×10⁻⁶ cm/s | 2.5 ×10⁻⁶ cm/s | 7.7 ×10⁻⁶ cm/s | 7.3 |
